Test results reported in US20230085307A1, “PYRIDAZINONE COMPOUND AND HERBICIDE” (NISSAN CHEMICAL CORPORATION, priority 2019, published 2023).

Key:
wild oat [1] = test: Test Example 5: herbicidal effect by foliage application, plastic box (Table 20, symbol I); type: in vivo, wild oat (Avena fatua); details: 320 g/ha, foliage application after 14-day growth, evaluated three weeks after application
Summary of the method: (§1)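 Sow seeds spot-wise in sterilized diluvial soil; cover with ~1.5 cm soil. Grow 14 days in greenhouse, 25° C. to 30° C. Spray foliage with emulsion diluted to predetermined amount. Rate effect after 3 weeks.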

chickweed [2] = test: Test Example 5: herbicidal effect by foliage application, plastic box (Table 20, symbol P); type: in vivo, common chickweed (Stellaria media); details: 320 g/ha, foliage application after 14-day growth, evaluated three weeks after application
Summary of the method: as §1

velvetleaf [3] = test: Test Example 4: herbicidal effect by soil treatment (Table 19, symbol M); type: in vivo, velvetleaf (Abutilon theophrasti); details: amount of applied herbicide 320 g/ha
Summary of the method: (§2)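 Soil-surface application: an emulsion agent diluted with water to the predetermined dose is sprayed uniformly over seeds lying under roughly 1.5 cm of sterilized diluvial soil. Boxes stay in a greenhouse at 25° C. to 30° C. Three weeks later, each species is graded on previously defined criteria.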

blackgrass [4] = test: Test Example 4: herbicidal effect by soil treatment (Table 19, symbol J); type: in vivo, blackgrass (Alopecurus myosuroides); details: amount of applied herbicide 320 g/ha
Summary of the method: as §2

barnyard grass [5] = test: Test Example 5: herbicidal effect by foliage application, plastic box (Table 20, symbol H); type: in vivo, barnyard grass (Echinochloa crus-galli); details: 320 g/ha, foliage application after 14-day growth, evaluated three weeks after application
Summary of the method: as §1

Italian ryegrass [6] = test: Test Example 4: herbicidal effect by soil treatment (Table 19, symbol K); type: in vivo, Italian ryegrass (Lolium multiflorum); details: amount of applied herbicide 320 g/ha
Summary of the method: as §2

southern crabgrass [7] = test: Test Example 4: herbicidal effect by soil treatment (Table 19, symbol F); type: in vivo, southern crabgrass (Digitaria ciliaris); details: amount of applied herbicide 320 g/ha
Summary of the method: as §2

Japanese bulrush = test: Test Example 2: herbicidal activity, application during weed generation under submerged conditions (Table 17, symbol B); type: in vivo, Japanese bulrush (Schoenoplectus juncoides); details: AAH 320 g/ha; application during weed generation, submerged conditions
Summary of the method: (§3)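 Effect on each weed is rated three weeks post-treatment, using the same scoring criteria as the preceding test. Plants grow from mixed-sown seed in flooded alluvial soil (4 cm water) at 25° C. to 30° C., and are treated at one to two leaves with diluted emulsion dropped onto the water.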

Chinese sprangletop = test: Test Example 3: herbicidal effect by foliage application, Wagner pot (Table 18, symbol D); type: in vivo, chinese sprangletop (Leptochloa chinensis); details: 320 g/ha
Summary of the method: (§4)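 Plants were sown in alluvial soil held under 0.1–0.5 cm standing water and grown 14 days in a greenhouse at 25–30 °C. An emulsifiable formulation, water-diluted to the set dose, was then sprayed onto the foliage, and effects were scored three weeks later using previously defined criteria.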

persian speedwell [8] = test: Test Example 5: herbicidal effect by foliage application, plastic box (Table 20, symbol R); type: in vivo, Persian speedwell (Veronica persica); details: 320 g/ha, foliage application after 14-day growth, evaluated three weeks after application
Summary of the method: as §1

lambsquarters [9] = test: Test Example 5: herbicidal effect by foliage application, plastic box (Table 20, symbol O); type: in vivo, lambsquarters (Chenopodium album); details: 320 g/ha, foliage application after 14-day growth, evaluated three weeks after application
Summary of the method: as §1

velvetleaf [10] = test: Test Example 5: herbicidal effect by foliage application, plastic box (Table 20, symbol M); type: in vivo, velvetleaf (Abutilon theophrasti); details: 320 g/ha, foliage application after 14-day growth, evaluated three weeks after application
Summary of the method: as §1

redroot pigweed [11] = test: Test Example 4: herbicidal effect by soil treatment (Table 19, symbol N); type: in vivo, redroot pigweed (Amaranthus retroflexus); details: amount of applied herbicide 320 g/ha
Summary of the method: as §2

wild oat [12] = test: Test Example 4: herbicidal effect by soil treatment (Table 19, symbol I); type: in vivo, wild oat (Avena fatua); details: amount of applied herbicide 320 g/ha
Summary of the method: as §2

rice flat sedge = test: Test Example 3: herbicidal effect by foliage application, Wagner pot (Table 18, symbol E); type: in vivo, rice flat sedge (Cyperus iria); details: 320 g/ha
Summary of the method: as §4

southern crabgrass [13] = test: Test Example 5: herbicidal effect by foliage application, plastic box (Table 20, symbol F); type: in vivo, southern crabgrass (Digitaria ciliaris); details: 320 g/ha, foliage application after 14-day growth, evaluated three weeks after application
Summary of the method: as §1

persian speedwell [14] = test: Test Example 4: herbicidal effect by soil treatment (Table 19, symbol R); type: in vivo, Persian speedwell (Veronica persica); details: amount of applied herbicide 320 g/ha
Summary of the method: as §2

late watergrass = test: Test Example 2: herbicidal activity, application during weed generation under submerged conditions (Table 17, symbol A); type: in vivo, late watergrass (Echinochloa oryzicola); details: AAH 320 g/ha; application during weed generation, submerged conditions
Summary of the method: as §3

Italian ryegrass [15] = test: Test Example 5: herbicidal effect by foliage application, plastic box (Table 20, symbol K); type: in vivo, Italian ryegrass (Lolium multiflorum); details: 320 g/ha, foliage application after 14-day growth, evaluated three weeks after application
Summary of the method: as §1

green foxtail [16] = test: Test Example 4: herbicidal effect by soil treatment (Table 19, symbol G); type: in vivo, green foxtail (Setaria viridis); details: amount of applied herbicide 320 g/ha
Summary of the method: as §2

windgrass [17] = test: Test Example 5: herbicidal effect by foliage application, plastic box (Table 20, symbol L); type: in vivo, windgrass (Apera spica-venti); details: 320 g/ha, foliage application after 14-day growth, evaluated three weeks after application
Summary of the method: as §1

blackgrass [18] = test: Test Example 5: herbicidal effect by foliage application, plastic box (Table 20, symbol J); type: in vivo, blackgrass (Alopecurus myosuroides); details: 320 g/ha, foliage application after 14-day growth, evaluated three weeks after application
Summary of the method: as §1

lambsquarters [19] = test: Test Example 4: herbicidal effect by soil treatment (Table 19, symbol O); type: in vivo, lambsquarters (Chenopodium album); details: amount of applied herbicide 320 g/ha
Summary of the method: as §2

oval-leafed pondweed = test: Test Example 2: herbicidal activity, application during weed generation under submerged conditions (Table 17, symbol C); type: in vivo, oval-leafed pondweed (Monochoria vaginalis); details: AAH 320 g/ha; application during weed generation, submerged conditions
Summary of the method: as §3

green foxtail [20] = test: Test Example 5: herbicidal effect by foliage application, plastic box (Table 20, symbol G); type: in vivo, green foxtail (Setaria viridis); details: 320 g/ha, foliage application after 14-day growth, evaluated three weeks after application
Summary of the method: as §1

barnyard grass [21] = test: Test Example 3: herbicidal effect by foliage application, Wagner pot (Table 18, symbol H); type: in vivo, barnyard grass (Echinochloa crus-galli); details: 320 g/ha
Summary of the method: as §4

barnyard grass [22] = test: Test Example 4: herbicidal effect by soil treatment (Table 19, symbol H); type: in vivo, barnyard grass (Echinochloa crus-galli); details: amount of applied herbicide 320 g/ha
Summary of the method: as §2

redroot pigweed [23] = test: Test Example 5: herbicidal effect by foliage application, plastic box (Table 20, symbol N); type: in vivo, redroot pigweed (Amaranthus retroflexus); details: 320 g/ha, foliage application after 14-day growth, evaluated three weeks after application
Summary of the method: as §1

windgrass [24] = test: Test Example 4: herbicidal effect by soil treatment (Table 19, symbol L); type: in vivo, windgrass (Apera spica-venti); details: amount of applied herbicide 320 g/ha
Summary of the method: as §2

chickweed [25] = test: Test Example 4: herbicidal effect by soil treatment (Table 19, symbol P); type: in vivo, common chickweed (Stellaria media); details: amount of applied herbicide 320 g/ha
Summary of the method: as §2

Question: With CCCC(=O)Oc1c(C)nn(C)c(=O)c1-c1c(-c2ccc(C(F)(F)F)cc2)sc2c(Cl)cccc12 [4-030] as the molecule, how does the “herbicidal effect on I: wild oat (evaluation grade 0-5)” value (wild oat [1]) read?
Answer: 3 (Herbicidal rate of 40% or more and less than 70%)

Question: What about the “herbicidal effect on P: chickweed (evaluation grade 0-5)” value (chickweed [2]) of the same molecule?
Answer: 5 (Herbicidal rate of 90% or more (almost completely withered))

Question: And the “Herbicidal effect by soil treatment, M: velvetleaf” value (velvetleaf [3])?
Answer: 0 (Herbicidal rate of 5% or less (almost no effect))

Question: What about the “Herbicidal effect by soil treatment, J: blackgrass” value (blackgrass [4]) of the same molecule?
Answer: 0 (Herbicidal rate of 5% or less (almost no effect))

Question: What about the “herbicidal effect on H: barnyard grass (evaluation grade 0-5)” value (barnyard grass [5]) of the same molecule?
Answer: 0 (Herbicidal rate of 5% or less (almost no effect))

Question: What about the “Herbicidal effect by soil treatment, K: Italian ryegrass” value (Italian ryegrass [6]) of the same molecule?
Answer: 0 (Herbicidal rate of 5% or less (almost no effect))

Question: And the “Herbicidal effect by soil treatment, F: southern crabgrass” value (southern crabgrass [7])?
Answer: 0 (Herbicidal rate of 5% or less (almost no effect))

Question: What about the “herbicidal effect rating, B: Japanese bulrush” value (Japanese bulrush) of the same molecule?
Answer: 3 (Herbicidal rate of 40% or more and less than 70%)

Question: And the “herbicidal effect on Chinese sprangletop (D)” value (Chinese sprangletop)?
Answer: 5 (Herbicidal rate of 90% or more (almost completely withered))

Question: And the “herbicidal effect on R: persian speedwell (evaluation grade 0-5)” value (persian speedwell [8])?
Answer: 5 (Herbicidal rate of 90% or more (almost completely withered))

Question: And the “herbicidal effect on O: lambsquarters (evaluation grade 0-5)” value (lambsquarters [9])?
Answer: 0 (Herbicidal rate of 5% or less (almost no effect))

Question: What about the “herbicidal effect on M: velvetleaf (evaluation grade 0-5)” value (velvetleaf [10]) of the same molecule?
Answer: 0 (Herbicidal rate of 5% or less (almost no effect))

Question: And the “Herbicidal effect by soil treatment, N: redroot pigweed” value (redroot pigweed [11])?
Answer: 0 (Herbicidal rate of 5% or less (almost no effect))

Question: What about the “Herbicidal effect by soil treatment, I: wild oat” value (wild oat [12]) of the same molecule?
Answer: 0 (Herbicidal rate of 5% or less (almost no effect))

Question: What about the “herbicidal effect on rice flat sedge (E)” value (rice flat sedge) of the same molecule?
Answer: 3 (Herbicidal rate of 40% or more and less than 70%)

Question: What about the “herbicidal effect on F: southern crabgrass (evaluation grade 0-5)” value (southern crabgrass [13]) of the same molecule?
Answer: 0 (Herbicidal rate of 5% or less (almost no effect))

Question: What about the “Herbicidal effect by soil treatment, R: persian speedwell” value (persian speedwell [14]) of the same molecule?
Answer: 0 (Herbicidal rate of 5% or less (almost no effect))

Question: And the “herbicidal effect rating, A: late watergrass” value (late watergrass)?
Answer: 3 (Herbicidal rate of 40% or more and less than 70%)

Question: And the “herbicidal effect on K: Italian ryegrass (evaluation grade 0-5)” value (Italian ryegrass [15])?
Answer: 0 (Herbicidal rate of 5% or less (almost no effect))

Question: And the “Herbicidal effect by soil treatment, G: green foxtail” value (green foxtail [16])?
Answer: 0 (Herbicidal rate of 5% or less (almost no effect))

Question: What about the “herbicidal effect on L: windgrass (evaluation grade 0-5)” value (windgrass [17]) of the same molecule?
Answer: 5 (Herbicidal rate of 90% or more (almost completely withered))

Question: What about the “herbicidal effect on J: blackgrass (evaluation grade 0-5)” value (blackgrass [18]) of the same molecule?
Answer: 0 (Herbicidal rate of 5% or less (almost no effect))

Question: And the “Herbicidal effect by soil treatment, O: lambsquarters” value (lambsquarters [19])?
Answer: 0 (Herbicidal rate of 5% or less (almost no effect))

Question: What about the “herbicidal effect rating, C: oval-leafed pondweed” value (oval-leafed pondweed) of the same molecule?
Answer: 3 (Herbicidal rate of 40% or more and less than 70%)

Question: And the “herbicidal effect on G: green foxtail (evaluation grade 0-5)” value (green foxtail [20])?
Answer: 0 (Herbicidal rate of 5% or less (almost no effect))

Question: And the “herbicidal effect on barnyard grass (H)” value (barnyard grass [21])?
Answer: 3 (Herbicidal rate of 40% or more and less than 70%)

Question: What about the “Herbicidal effect by soil treatment, H: barnyard grass” value (barnyard grass [22]) of the same molecule?
Answer: 0 (Herbicidal rate of 5% or less (almost no effect))

Question: What about the “herbicidal effect on N: redroot pigweed (evaluation grade 0-5)” value (redroot pigweed [23]) of the same molecule?
Answer: 0 (Herbicidal rate of 5% or less (almost no effect))

Question: And the “Herbicidal effect by soil treatment, L: windgrass” value (windgrass [24])?
Answer: 0 (Herbicidal rate of 5% or less (almost no effect))

Question: What about the “Herbicidal effect by soil treatment, P: chickweed” value (chickweed [25]) of the same molecule?
Answer: 3 (Herbicidal rate of 40% or more and less than 70%)
